Experiment [1] has as its target T1, CsPT1 (Cannabis sativa, UniProt A0A455ZIK6). The experiment can be described thus: Prenyltransferase assay of recombinant CsPT1 with different aromatic acceptor substrates, geranyl diphosphate as prenyl donor. Format: biochemical. Particulars: for Product yield (%): yield of prenylated products by HPLC peak area, yield of cannabigerolic acid and 5-geranyl olivetolic acid set to 100%. As to the method: (§1) The prenyltransferase assay for CsPT1 comprised 100 mM Tris-HCl (pH 7.5), 0.2 mM olivetolic acid, 1 mM geranyl diphosphate and 5 mM MgCl2 in a final volume 100 μl. The reaction was initiated by addition of a 5 μl aliquot of microsomal preparation (64 μg protein), either from insect cells or yeast. After incubation for 1 h at 37° C., the reaction was terminated by addition of 10 μl 6 N HCl and extracted twice with 200 μl of ethyl acetate. The organic phase was evaporated to dryness and the residue dissolved in 50 μl of methanol. A 20 μl aliquot was analyzed by HPLC using a Waters 2695 system equipped with photodiode array detector on a Sunfire C18 reversed phase column 3.5 μm (4.6×150 mm) at a column temperature of 30° C. The mobile phase at 1 ml/min consisted of 50% water (containing 0.1% trifluoroacetic acid [TFA] [v/v]) and 50% acetonitrile over 10 min, 50% to 100% acetonitrile over 10 min, 100% acetonitrile to 50% acetonitrile over 1 min, 50% acetonitrile and 50% water over 4 min. The products were detected at 270 nm with photodiode array detection.
The activity of the recombinant CsPT1 was assayed to determine its use of different aromatic acceptor substrates using geranyl diphosphate as the prenyl donor substrate. […] In Table 3, Product yield is the yield of prenylated products as measured by HPLC peak area with the yield of cannabigerolic acid and 5-geranyl olivetolic acid set to 100%. Phlorisovalerophenone has not been detected in cannabis. It has been shown that cannabinoids with short side-chains exist in cannabis (e.g. tetrahydrocannabivarinic acid having a propyl side-chain instead of the pentyl side-chain of THC acid (Shoyama 1984). Given that CsPT1 accepts a variety of aromatic acceptor substrates, this enzyme likely is able to prenylate analogs of olivetolic acid that have differing side-chain length.

The target of experiment [2] is T1, CsPT1. The experiment can be described thus: Prenyltransferase assay of recombinant CsPT1 with different prenyl diphosphate donor substrates. In kind it is biochemical. Particulars: FIG. 6; n=3. As to the method: FIG. 6 depicts use of different prenyl diphosphate donor substrates by recombinant CsPT1, where DMAPP is dimethylally diphosphate, IPP is isopenetnyl diphosphate, GPP is geranyl diphosphate, NPP is neryl diphosphate, FPP is farnesyl diphosphate, and GGPP is geranylgeranyl diphosphate. Bar represents mean+/− standard deviation (n=3).
as §1, with “detection. […]” for “detection.”

Take `O=c1cc(-c2ccc(O)c(O)c2)oc2cc(O)cc(O)c12` [Luteolin]: the “Product yield (%)” value in experiment [1] is given as 0%. Take `COc1cc(-c2cc(=O)c3c(O)cc(O)cc3o2)ccc1O` [Chrysoeriol]: in experiment [1], the “Product yield (%)” value was found to be 0%. For `CCCCCc1cc(O)cc(O)c1C(=O)O` [Olivetolic acid], in experiment [1], the “Geranylation of aromatic acceptor substrate by CsPT1” value (shortened to “Geranylation”) is reported as “geranylated” and the “Product yield (%)” value is on record as 100%. In the same order, the values of `Oc1ccc(C=Cc2cc(O)cc(O)c2)cc1` [Resveratrol] are “geranylated” and 32%.

Consider `CCCCCC(=O)Cc1cc(O)cc(=O)o1` [Hexanoyl triacetic acid lactone], for which, in experiment [1], the “Product yield (%)” value worked out at 0%.

For `CC(C)=CCC/C(C)=C/COP(=O)(O)OP(=O)(O)O` [geranyl diphosphate], the “Use as prenyl donor substrate” value in experiment [2] is on record as “only used geranyl diphosphate (GPP) as a prenyl donor”. Turning to `CCCCCc1cc(O)cc(O)c1` [Olivetol], in experiment [1], the “Geranylation” value is “geranylated” and the “Product yield (%)” value worked out at 30%. In the case of `O=C(O)Cc1cc(O)ccc1O` [Homogentisic acid], the “Product yield (%)” value in experiment [1] came to 0%. As for `CC(C)CC(=O)c1c(O)cc(O)cc1O` [Phlorisovalerophenone], in experiment [1], the “Geranylation” value is given as “geranylated” and the “Product yield (%)” value was 250%.

For `O=C1C[C@@H](c2ccc(O)cc2)Oc2cc(O)cc(O)c21` [Naringenin], in experiment [1], the “Geranylation” value is “geranylated” and the “Product yield (%)” value worked out at 31%. As to `Oc1cc(O)cc(O)c1` [Phloroglucinol], the “Product yield (%)” value in experiment [1] is listed as 0%. `O=C(/C=C/c1ccc(O)cc1)c1c(O)cc(O)cc1O` [Chalconaringenin]: the “Product yield (%)” value in experiment [1] came to 0%.

These data come from patent US9765308B2, “Aromatic prenyltransferase from cannabis” (priority 2009, dated 2017).
